According to ChEMBL document CHEMBL1142597, “Arugosins G and H: prenylated polyketides from the marine-derived fungus Emericellanidulans var. acristata” (J Nat Prod, 2006):
Calls of active or inactive are those of the source. The rule behind the calls is not given here.

Columns and labels:
[1] = test system: PBMC; test: Stimulation of IL6 production in human PBMC at 1 ug/mL after 24 hrs by flow cytometry with cytometric bead array method; assay type: functional, cell-based
[2] = test system: PBMC; test: Stimulation of IL4 production in human PBMC at 1 ug/mL after 24 hrs by flow cytometry with cytometric bead array method; assay type: functional, cell-based
[3] = test system: PBMC; test: Stimulation of TNFalpha production in human PBMC at 1 ug/mL after 24 hrs by flow cytometry with cytometric bead array method; assay type: functional, cell-based
[4] = test system: PBMC; test: Cytotoxicity against human PBMC at 0.1 ug/mL; assay type: cell-based
[5] = test system: PBMC; test: Cytotoxicity against human PBMC at 1 ug/mL; assay type: cell-based
[6] = test system: PBMC; test: Stimulation of IL10 production in human PBMC at 1 ug/mL after 24 hrs by flow cytometry with cytometric bead array method; assay type: functional, cell-based
[7] = test system: PBMC; test: Stimulation of IL2 production in human PBMC at 1 ug/mL after 24 hrs by flow cytometry with cytometric bead array method; assay type: functional, cell-based
[8] = test system: PBMC; test: Stimulation of IL4 production in human PBMC at 0.1 ug/mL after 24 hrs by flow cytometry with cytometric bead array method; assay type: functional, cell-based
[9] = test system: PBMC; test: Stimulation of IL10 production in human PBMC at 0.1 ug/mL after 24 hrs by flow cytometry with cytometric bead array method; assay type: functional, cell-based
[10] = test system: PBMC; test: Stimulation of IL2 production in human PBMC at 0.1 ug/mL after 24 hrs by flow cytometry with cytometric bead array method; assay type: functional, cell-based
[11] = test system: PBMC; test: Stimulation of IL6 production in human PBMC at 0.1 ug/mL after 24 hrs by flow cytometry with cytometric bead array method; assay type: functional, cell-based
[12] = test system: PBMC; test: Stimulation of IFN-gamma production in human PBMC at 0.1 ug/mL after 24 hrs by flow cytometry with cytometric bead array method; assay type: functional, cell-based
[13] = test system: PBMC; test: Stimulation of TNFalpha production in human PBMC at 0.1 ug/mL after 24 hrs by flow cytometry with cytometric bead array method; assay type: functional, cell-based
[14] = test system: PBMC; test: Stimulation of IFN-gamma production in human PBMC at 1 ug/mL after 24 hrs by flow cytometry with cytometric bead array method; assay type: functional, cell-based
[15] = test system: [Chlorella] fusca; test: Antialgal activity against 'Chlorella' fusca at 50 ug/disk by agar diffusion assay; assay type: functional; details: Scenedesmus fuscus; read-out: IZ
[16] = test system: Mycotypha microspora; test: Antifungal activity against Mycotypha microspora at 50 ug/disk by agar diffusion assay; assay type: functional; details: read-out: IZ

In the case of `CC(C)=CCOc1c(C)cc(O)c2c1C(O)Oc1ccc(CC=C(C)C)c(O)c1C2=O` (centres undefined) [ARUGOSIN A], the Activity [1] is reported as “inactive”, the Activity [2] is reported as “inactive” and the Activity [3] is reported as “inactive”. For the same compound, the Activity [4] was “Non-toxic”, the Activity [5] was “Non-toxic” and the Activity [6] was “inactive”. For the same compound, the Activity [7] was “inactive”, the Activity [8] was “inactive” and the Activity [9] was “inactive”. The Activity [10] was “inactive”, the Activity [11] was “inactive” and the Activity [12] was “inactive”. The Activity [13] was “inactive” and the Activity [14] was “inactive”.

With `CC(C)=CCOc1c(C)cc(O)c2c1C(O)Oc1c(CC=C(C)C)ccc(O)c1C2=O` (centres undefined) [ARUGOSIN B] the Activity [1] was “inactive”, the Activity [2] was “inactive” and the Activity [3] was “inactive”. For the same compound, the Activity [4] was “Non-toxic”, the Activity [5] was “Non-toxic” and the Activity [6] was “inactive”. The Activity [7] was “inactive”, the Activity [8] was “inactive” and the Activity [9] was “inactive”. For the same compound, the Activity [10] was “inactive”, the Activity [11] was “inactive” and the Activity [12] was “inactive”. The Activity [13] was “inactive” and the Activity [14] was “inactive”.

`CC(C)=CCOc1c(C)cc(O)c2c1C(O)Oc1c(CC=C(C)C)cc(CC=C(C)C)c(O)c1C2=O` (centres undefined) [ARUGOSINS G] was tested, and the Activity [1] was “inactive”, the Activity [2] was “inactive” and the Activity [3] was “inactive”. For the same compound, the Activity [4] was “Non-toxic”, the Activity [5] was “Non-toxic” and the Activity [6] was “inactive”. The Activity [7] was “inactive”, the Activity [8] was “inactive” and the Activity [9] was “inactive”. The Activity [10] was “inactive”, the Activity [11] was “inactive” and the Activity [12] was “inactive”. The Activity [13] was “inactive” and the Activity [14] was “inactive”.

In the case of `CC(C)=CCc1ccc(O)c(C(=O)c2c(O)cc(C)c(O)c2C=O)c1O` [ARUGOSINS H], the Activity [1] is reported as “inactive”, the Activity [2] is reported as “inactive” and the Activity [3] is reported as “inactive”. For the same compound, the zone of inhibition at 50 µg/disc [15] was 2 mm, the Activity [4] was “Non-toxic” and the Activity [5] was “Non-toxic”. For the same compound, the Activity [6] was “inactive”, the Activity [7] was “inactive” and the Activity [8] was “inactive”. For the same compound, the Activity [9] was “inactive”, the Activity [10] was “inactive” and the Activity [11] was “inactive”. For the same compound, the Activity [12] was “inactive”, the Activity [13] was “inactive” and the Activity [14] was “inactive”. For the same compound, the zone of inhibition at 50 µg/disc [16] was 3 mm.

`CC(C)=CCOc1c(C)cc2oc3c(CC=C(C)C)ccc(O)c3c(=O)c2c1CO` [EMERICELLIN] was tested, and the Activity [1] was “inactive”, the Activity [2] was “inactive” and the Activity [3] was “inactive”. The Activity [4] was “Non-toxic”, the Activity [5] was “Non-toxic” and the Activity [6] was “inactive”. For the same compound, the Activity [7] was “inactive”, the Activity [8] was “inactive” and the Activity [9] was “inactive”. The Activity [10] was “inactive”, the Activity [11] was “inactive” and the Activity [12] was “inactive”. The Activity [13] was “inactive” and the Activity [14] was “inactive”.

`C=C1CC[C@@H]2[C@](C)(CC[C@H](O)[C@@]2(C)CCC=C(C)C)[C@@H]1Cc1c[nH]c2ccccc12` [EMINDOLE DA] was tested, and the Activity [1] was “inactive”, the Activity [2] was “inactive” and the Activity [3] was “inactive”. For the same compound, the Activity [4] was “Non-toxic”, the Activity [5] was “Non-toxic” and the Activity [6] was “inactive”. The Activity [7] was “inactive”, the Activity [8] was “inactive” and the Activity [9] was “inactive”. The Activity [10] was “inactive”, the Activity [11] was “inactive” and the Activity [12] was “inactive”. For the same compound, the Activity [13] was “inactive” and the Activity [14] was “inactive”.

With `O=C1OC(O)C(Cc2ccccc2)=C1c1ccccc1` (centres undefined) [MICROPERFURANONE] the Activity [1] was “inactive”, the Activity [2] was “inactive” and the Activity [3] was “inactive”. The Activity [4] was “Non-toxic”, the Activity [5] was “Non-toxic” and the Activity [6] was “inactive”. The Activity [7] was “inactive”, the Activity [8] was “inactive” and the Activity [9] was “inactive”. For the same compound, the Activity [10] was “inactive”, the Activity [11] was “inactive” and the Activity [12] was “inactive”. For the same compound, the Activity [13] was “inactive” and the Activity [14] was “inactive”.

In the case of `C=C(C)[C@H]1COc2c(C)cc3oc4c(CC=C(C)C)ccc(O)c4c(=O)c3c2[C@@H]1O` [SHAMIXANTHONE], the Activity [1] is reported as “inactive”, the Activity [2] is reported as “inactive” and the Activity [3] is reported as “inactive”. For the same compound, the Activity [4] was “Non-toxic”, the Activity [5] was “Non-toxic” and the Activity [6] was “inactive”. For the same compound, the Activity [7] was “inactive”, the Activity [8] was “inactive” and the Activity [9] was “inactive”. The Activity [10] was “inactive”, the Activity [11] was “inactive” and the Activity [12] was “inactive”. For the same compound, the Activity [13] was “inactive” and the Activity [14] was “inactive”.
